# From patent publication US20100174007A1, “Haloneopentyl Bis(ALKYL) Phosphate Ester, Flame Retardant Composition Containing Same and Polyurethane Foam Prepared Therewith” (priority 2007, published 2010)
# Key:
# [1] = tested on: Salmonella typhimurium TA1535; assay: Ames test, strain TA1535; format: cell-based; details: with and without metabolic activation; base-pair substitution strain; note: key: +: Plus sign indicates observed mutagenic effects; −: minus sign indicates non-mutagenic property
# Method: (§1) In each Ames test, a single chemical substance was evaluated in the four standard Salmonella typhimurium tester strains, TA1535, TA1537, TA98, and TA100. Strains TA1535 and TA100 identify mutagens that act via base-pair substitution whereas TA1537 and TA98 identify mutagens capable of causing frameshifts in the DNA. The bacterial strain E. coli WP2uvrA was also included as another sensitive tester strain. Each test was conducted with and without metabolic activation.
# [2] = tested on: E. coli WP2uvrA; format: cell-based
# Method: as §1
# [3] = tested on: Salmonella typhimurium TA1537; assay: Ames test, strain TA1537; format: cell-based; details: with and without metabolic activation; frameshift strain; note: key: +: Plus sign indicates observed mutagenic effects; −: minus sign indicates non-mutagenic property
# Method: as §1
# [4] = tested on: Salmonella typhimurium TA100; assay: Ames test, strain TA100; format: cell-based; details: with and without metabolic activation; base-pair substitution strain; note: key: +: Plus sign indicates observed mutagenic effects; −: minus sign indicates non-mutagenic property
# Method: as §1
# [5] = tested on: Salmonella typhimurium TA98; assay: Ames test, strain TA98; format: cell-based; details: with and without metabolic activation; frameshift strain; note: key: +: Plus sign indicates observed mutagenic effects; −: minus sign indicates non-mutagenic property
# Method: as §1
# [6] = tested on: rats; assay: Acute oral toxicity, limit dose; format: in vivo
# Method: No rats died after the administration of an oral limit dose of 5000 mg/kg of products from Example 1(B). Clinical signs were minimal and all rats fully recovered by day 3. The acute oral LD50 was greater than 5000 mg/kg.
Molecule,Ames test result TA1535 [1],Ames test result WP2uvrA [2],Ames test result TA1537 [3],Ames test result TA100 [4],Ames test result TA98 [5],acute oral LD50 ([6]; oral),mortality after oral limit dose ([6]; oral limit dose of 5000 mg/kg),"clinical signs after oral limit dose ([6]; oral limit dose of 5000 mg/kg, all rats fully recovered by day 3)"
"CC(C)(C)c1ccccc1OP(=O)(OC(CCl)CCl)OC(CCl)CCl [O-tert-Butylphenyl bis(1,3-dichloro-2-propyl)phosphate]",+,−,−,+,−,,,
"O=P(OCC(CBr)(CBr)CBr)(OC(CCl)CCl)OC(CCl)CCl [Phosphoric acid, 3-bromo-2,2-bis(bromomethyl)propyl bis[2-chloro-1-(chloromethyl)ethyl]ester]",−,−,−,+,−,,,
tribromoneopentyl bis(isobutyl)phosphate [Products of 1(B)],−,−,−,−,−,greater than 5000 mg/kg,No rats died,minimal
